Here are results for twelve molecules from ChEMBL document CHEMBL1201862, “PubChem BioAssay data set” (2004).

Test systems include UACC-62; SN12C; HOP-62; SNB-75; DLD-1; SW-620; LOX IMVI; U-251; MDA-N; MCF7; NCI-H522; T47D; DU-145; PC-3; A498; BT-549; NCI-H226; KM12; OVCAR-5; HCT-116.
Common to all, as to test: NCI-60 cell line screen, 48 h

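Step 1: Grow cells in 96-well plates. Step 2: Expose to compound for 48 hours at 5 concentrations. Step 3: Interpolate endpoints linearly; if unreached, use highest concentration. GI50 = concentration required for 50% inhibition of growth.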 Active and inactive are the calls of the source. No stated cut-off is given here; in the data, active = GI50 up to about 1.1 µM and inactive = higher. Where a SMILES comes first, the peptide text is derived from it. [ ]: non-standard residue; d: D form. The star is where a group is joined. ξ: configuration not given here. Propanoyl(3-(4-MeO-Ph)) = COc1ccc(CCC(=O)*)cc1; Thr(3ξ) = CC(O)[C@H](N)C(=O)O; dNMeL = CN[C@H](CC(C)C)C(=O)O; OBn = c1ccc(CO*)cc1; ξLac = CC(O)C(=O)O

Consider `O=C1C2CC=CCC2C(=O)C12CCc1ccccc12` (stereo not given), for which the GI50 in the assay with UACC-62, in the assay with SN12C, with HOP-62, in the assay with SNB-75, with DLD-1 and with SW-620 was > 100 µM (inactive) in each case. Also, the GI50 in the assay on LOX IMVI and with U-251 was > 100 µM (inactive) throughout.
On to `CC(C)[Si](OC/C(=C/COC(C)(C)C)[C@H]1CC=C(C(=O)c2ccccc2N2CN(C)C(=O)N(C)C2)C1)(C(C)C)C(C)C`, for which the GI50 in the assay on MDA-N is 2.18 µM (inactive); in the assay with MCF7, 4.47 µM (inactive); in the assay with UACC-62, 10.8 µM (inactive); in the assay with SN12C it was 12.4 µM (inactive); with NCI-H522, 7.41 µM (inactive); in the assay on HOP-62, 16 µM (inactive). For the same molecule, the GI50 in the assay on T47D is 7.73 µM (inactive); with SNB-75 it was 14.1 µM (inactive); with DU-145, 13.5 µM (inactive); with PC-3 it was 5.6 µM (inactive); in the assay with A498, 19.7 µM (inactive); in the assay on SW-620, 3.17 µM (inactive). The GI50 with BT-549 was 13.4 µM (inactive); with NCI-H226 it was 14.6 µM (inactive); with KM12 it was 13.7 µM (inactive); in the assay with OVCAR-5, 14.2 µM (inactive); with LOX IMVI, 2.07 µM (inactive); in the assay on HCT-116, 2.3 µM (inactive). Also, the GI50 in the assay with U-251 is 10.1 µM (inactive).
Regarding `OCC1OC2c3ccccc3COC2C1OCc1ccccc1` (stereo not given), the GI50 in the assay with UACC-62 was 69.5 µM (inactive); in the assay on SN12C, > 100 µM (inactive); in the assay with NCI-H522, 70.1 µM (inactive); in the assay on SNB-75 it was > 100 µM (inactive); with DLD-1, > 100 µM (inactive); in the assay with SW-620, > 100 µM (inactive). Moreover, the GI50 in the assay with NCI-H226, with KM12, in the assay on OVCAR-5, in the assay on HCT-116 and in the assay on U-251 was > 100 µM (inactive) each time.
Consider `COc1ccc(C(Cl)=C(c2ccc(OCCN(C)C)cc2)c2ccc(OCCN(C)C)cc2)cc1`, for which the GI50 is 1.7 µM (inactive) in the assay with UACC-62; 2.65 µM (inactive) in the assay on SN12C; 1.57 µM (inactive) in the assay with NCI-H522; 3.14 µM (inactive) with HOP-62; 1.44 µM (inactive) in the assay with SNB-75; 2.51 µM (inactive) in the assay on DLD-1. The GI50 is 1.35 µM (inactive) with SW-620; 1.61 µM (inactive) with NCI-H226; 1.37 µM (inactive) with KM12; 1.73 µM (inactive) in the assay on OVCAR-5; 1.13 µM (inactive) in the assay with HCT-116; 1.58 µM (inactive) with U-251.
With `Cc1nc2nnnn2c2c1C(=O)Nc1ccccc1N2`, the GI50 was > 100 µM (inactive) with UACC-62; > 100 µM (inactive) in the assay with SN12C; > 100 µM (inactive) with NCI-H522; 71.9 µM (inactive) with HOP-62; > 100 µM (inactive) in the assay with SNB-75; > 100 µM (inactive) with DLD-1. Moreover, the GI50 with SW-620, with NCI-H226, with KM12, in the assay on LOX IMVI, in the assay with HCT-116 and in the assay on U-251 was > 100 µM (inactive) throughout.
Regarding `CN(C)CCNC(=O)c1cc([N+](=O)[O-])cn1C`, the GI50 in the assay on MDA-N, in the assay on MCF7, in the assay with UACC-62, in the assay with SN12C, with NCI-H522 and with HOP-62 was > 100 µM (inactive) each time. The GI50 in the assay with T47D, in the assay with SNB-75, in the assay on DU-145, with PC-3, in the assay on A498 and in the assay on SW-620 was > 100 µM (inactive) each time. Further, the GI50 in the assay with BT-549, in the assay on NCI-H226, with KM12, in the assay on OVCAR-5, with LOX IMVI and in the assay with HCT-116 was > 100 µM (inactive) each time. Also, the GI50 in the assay on U-251 is > 100 µM (inactive).
As to `O=C1N[C@@H](c2c[nH]c3cc(Br)ccc23)C(=O)N[C@H]1c1c[nH]c2cc(Br)ccc12`, the GI50 in the assay with MDA-N, in the assay with MCF7, with UACC-62, with SN12C, with NCI-H522 and with HOP-62 was > 100 µM (inactive) each time. Also, the GI50 is > 100 µM (inactive) with T47D; 9.4 µM (inactive) with SNB-75; > 100 µM (inactive) in the assay on DU-145; > 100 µM (inactive) in the assay on PC-3; > 100 µM (inactive) with A498; > 100 µM (inactive) in the assay on SW-620. Besides, the GI50 in the assay on BT-549 is > 100 µM (inactive); in the assay with NCI-H226, > 100 µM (inactive); in the assay with KM12, 83.9 µM (inactive); with OVCAR-5, > 100 µM (inactive); in the assay on LOX IMVI, > 100 µM (inactive); in the assay on HCT-116 it was > 100 µM (inactive). The GI50 with U-251 is 25.8 µM (inactive).
Take `CC1(C)OC(=O)N(c2ccccc2)C12C=Cc1cc([N+](=O)[O-])cc([N+](=O)[O-])c1O2` (stereo not given): the GI50 with MDA-N was > 100 µM (inactive); with MCF7, > 100 µM (inactive); in the assay with UACC-62, 61 µM (inactive); in the assay on SN12C, > 100 µM (inactive); in the assay with NCI-H522, 25.2 µM (inactive); with HOP-62, 97.9 µM (inactive). The GI50 is > 100 µM (inactive) with T47D; 66.5 µM (inactive) in the assay on SNB-75; > 100 µM (inactive) in the assay on DU-145; 91.2 µM (inactive) in the assay on PC-3; 81.3 µM (inactive) with A498; > 100 µM (inactive) in the assay with SW-620. In addition, the GI50 with BT-549, in the assay with NCI-H226, in the assay with KM12, in the assay with OVCAR-5, in the assay with LOX IMVI and with HCT-116 was > 100 µM (inactive) in each case. Besides, in the assay on U-251, the GI50 is > 100 µM (inactive).
As for `Cc1ccc(NC(c2ccccc2)c2ccc3cccnc3c2O)cc1` (stereo not given), the GI50 with MDA-N is 4.1 µM (inactive); in the assay on MCF7, 3.14 µM (inactive); with UACC-62 it was 3.84 µM (inactive); in the assay on SN12C, 4.63 µM (inactive); in the assay with NCI-H522 it was 2.17 µM (inactive); with HOP-62 it was 4.97 µM (inactive). Moreover, the GI50 is 7.23 µM (inactive) in the assay with T47D; 6.37 µM (inactive) in the assay with SNB-75; 11.1 µM (inactive) in the assay with DU-145; 3.66 µM (inactive) in the assay with PC-3; 12.2 µM (inactive) in the assay with A498; 6.34 µM (inactive) in the assay on SW-620. Moreover, the GI50 in the assay with BT-549 is 4.33 µM (inactive); in the assay with NCI-H226, 2.7 µM (inactive); with KM12, 5.02 µM (inactive); in the assay with OVCAR-5, 7.11 µM (inactive); in the assay on LOX IMVI, 3.6 µM (inactive); in the assay on HCT-116 it was 3.23 µM (inactive). Moreover, in the assay with U-251, the GI50 was 2.82 µM (inactive).
Regarding `CCCCCC(/C=N/N)C(O)(C(F)(F)F)C(F)(F)F` (stereo not given), the GI50 with MDA-N is 3.55 µM (inactive); with MCF7, 3.22 µM (inactive); with UACC-62, 3.9 µM (inactive); in the assay on SN12C it was 3.23 µM (inactive); with NCI-H522, 5.51 µM (inactive); in the assay on HOP-62 it was 4.78 µM (inactive). The GI50 was 7.08 µM (inactive) with T47D; 3.29 µM (inactive) with SNB-75; 1.9 µM (inactive) in the assay with DU-145; 3.27 µM (inactive) in the assay on PC-3; 2.44 µM (inactive) with A498; 2.53 µM (inactive) in the assay on SW-620. Also, the GI50 was 4.04 µM (inactive) in the assay on BT-549; 2.54 µM (inactive) with NCI-H226; 4.44 µM (inactive) with KM12; 4.19 µM (inactive) with OVCAR-5; 3.32 µM (inactive) in the assay with LOX IMVI; 3.99 µM (inactive) in the assay on HCT-116. For the same molecule, the GI50 with U-251 was 3.61 µM (inactive).
Turning to `COc1ccc(CCC(=O)OC(C)[C@H](NC(=O)[C@@H](CC(C)C)N(C)C(=O)[C@@H]2CCCN2C(=O)C(C)O)C(=O)OCc2ccccc2)cc1` (stereo not given in full) (H-[ξLac]P[dNMeL][Thr(3ξ)](Propanoyl(3-(4-MeO-Ph)))-OBn), the GI50 with MDA-N was 32.4 µM (inactive); in the assay on MCF7 it was 38.1 µM (inactive); in the assay on UACC-62, 19.2 µM (inactive); in the assay on SN12C, 34.9 µM (inactive); with NCI-H522, 24.3 µM (inactive); with HOP-62, 99.8 µM (inactive). In addition, the GI50 in the assay with T47D was 33.6 µM (inactive); in the assay with SNB-75, 19.9 µM (inactive); in the assay on DU-145 it was 62.5 µM (inactive); in the assay with PC-3, 30.5 µM (inactive); in the assay on A498, 28.7 µM (inactive); in the assay on SW-620 it was 32.3 µM (inactive). The GI50 in the assay on BT-549 was 43.6 µM (inactive); with NCI-H226, 30.4 µM (inactive); in the assay with KM12 it was 27.9 µM (inactive); in the assay on OVCAR-5 it was > 100 µM (inactive); in the assay on LOX IMVI, 17.9 µM (inactive); with HCT-116, 43.7 µM (inactive). For the same molecule, the GI50 with U-251 was 26.5 µM (inactive).
Consider `O=C1Cc2c([nH]c3ccc([N+](=O)[O-])cc23)-c2ccccc2N1` [ALSTERPAULLONE], for which the GI50 in the assay on MDA-N is 0.367 µM (active); in the assay on MCF7, 0.508 µM (active); in the assay on UACC-62, 0.94 µM (active); with SN12C, 0.391 µM (active); in the assay on NCI-H522, 1.22 µM (inactive); with HOP-62, 0.279 µM (active). The GI50 in the assay with T47D is 2.88 µM (inactive); in the assay on SNB-75, 0.804 µM (active); with DU-145, 0.209 µM (active); in the assay on PC-3, 0.836 µM (active); with A498, 0.822 µM (active); in the assay with SW-620, 0.348 µM (active). The GI50 was 1.08 µM (active) in the assay with BT-549; 0.275 µM (active) in the assay with NCI-H226; 0.165 µM (active) with KM12; 0.22 µM (active) in the assay with OVCAR-5; 0.181 µM (active) with LOX IMVI; 0.116 µM (active) in the assay with HCT-116. For the same molecule, the GI50 with U-251 is 0.471 µM (active).
